Read-outs that look alike come from different tables or passages of the source.
Test system: KARPAS422 human B cell lymphoma cell
Assay: Cell proliferation, KARPAS422, 7 day treatment (WST-8)
Format: cell-based
Conditions: Homo sapiens, KARPAS-422, 168 h
Description: “N/A” stands for “not assessed”.
Analysis of Cell Proliferation:
To assess the effect of PRC2 inhibition on cell growth, cells were seeded in 96-well cell culture plates at a density of 2 000-3 000 cells/well in 200 µL of culture medium, and treated with serially diluted compounds for 7 days at 37° C. in an atmosphere of 5% CO2. Cell growth was evaluated by a […] WST-8 assay (Dojindo Molecular Technologies) using a Tecan Infinite M1000 multimode microplate reader (Tecan, Morrisville, NC). The WST-8 reagent was added to the plate, incubated for 1-4 h, and read at 450 nm. The readings were normalized to the DMSO-treated cells, and the IC50 was calculated by nonlinear regression analysis using GraphPad Prism 6 software

[1] = anti-proliferative IC50, Karpas 422 cell line, 7 day treatment, read-out: Karpas Cell line
[2] = read-out: Karpas Cell line (nM)

| Structure (SMILES) | IC50 [1] [nM] | IC50 [2] [nM] |
| --- | --- | --- |
| COc1cccc(F)c1CNc1ncc2c3c(ncn13)C(=O)N(C(C)C)Cc1nc(C(F)(F)F)ccc1-2 [compound 71, 12-((2-fluoro-6-methoxybenzyl)amino)-4-isopropyl-7-(trifluoromethyl)-4,5-dihydro-3H-2,4,6,11,12a-pentaazabenzo[4,5]cycloocta[1,2,3-cd]inden-3-one] | > 100 | – |
| Cc1ccc(-c2cnc(NCc3c(F)ccc4c3CCO4)n3cnc(S(C)(=O)=O)c23)cn1 [compound 103, N-((5-fluoro-2,3-dihydrobenzofuran-4-yl)methyl)-8-(6-methylpyridin-3-yl)-1-(methylsulfonyl)imidazo[1,5-c]pyrimidin-5-amine] | – | 1.88 |
| CS(=O)(=O)c1ccc(-c2cnc(NCc3c(F)ccc4c3CCO4)n3cnc(S(C)(=O)=O)c23)cn1 [compound 105, N-((5-fluoro-2,3-dihydrobenzofuran-4-yl)methyl)-1-(methylsulfonyl)-8-(6-(methylsulfonyl)pyridin-3-yl)imidazo[1,5-c]pyrimidin-5-amine] | – | 10.8 |
| CCOC(=O)c1ncn2c(NCc3ccccc3OC)ncc(-c3ccccc3)c12 [compound 129, ethyl 5-((2-methoxybenzyl)amino)-8-phenylimidazo[1,5-c]pyrimidine-1-carboxylate] | > 100 | – |
| CCOC(=O)c1ncn2c(NCc3c(F)cccc3OC)ncc(-c3ccccc3)c12 [compound 130, ethyl 5-((2-fluoro-6-methoxybenzyl)amino)-8-phenylimidazo[1,5-c]pyrimidine-1-carboxylate] | > 100 | – |
| CCOC(=O)c1ncn2c(NCc3cc(OC)ccc3F)ncc(-c3ccccc3)c12 [compound 132, ethyl 5-((2-fluoro-5-methoxybenzyl)amino)-8-phenylimidazo[1,5-c]pyrimidine-1-carboxylate] | > 100 | – |
| CCOC(=O)c1ncn2c(NCc3c(F)ccc(OC)c3Cl)ncc(-c3ccccc3)c12 [compound 133, ethyl 5-((2-chloro-6-fluoro-3-methoxybenzyl)amino)-8-phenylimidazo[1,5-c]pyrimidine-1-carboxylate] | > 100 | – |
| CCOC(=O)c1ncn2c(NCc3cccc4c3OCO4)ncc(-c3ccccc3)c12 [compound 134, ethyl 5-((benzo[d][1,3]dioxol-4-ylmethyl)amino)-8-phenylimidazo[1,5-c]pyrimidine-1-carboxylate] | > 100 | – |
| CCOC(=O)c1ncn2c(NCc3c(F)ccc4c3CCO4)ncc(-c3ccccc3)c12 [compound 135, ethyl 5-(((5-fluoro-2,3-dihydrobenzofuran-4-yl)methyl)amino)-8-phenylimidazo[1,5-c]pyrimidine-1-carboxylate] | 7.07 | – |
| CNC(=O)c1ncn2c(NCc3ccccc3OC)ncc(-c3ccccc3)c12 [compound 136, 5-((2-methoxybenzyl)amino)-N-methyl-8-phenylimidazo[1,5-c]pyrimidine-1-carboxamide] | > 100 | – |
| CNC(=O)c1ncn2c(NCc3c(F)cccc3OC)ncc(-c3ccccc3)c12 [compound 137, 5-((2-fluoro-6-methoxybenzyl)amino)-N-methyl-8-phenylimidazo[1,5-c]pyrimidine-1-carboxamide] | > 100 | – |
| CNC(=O)c1ncn2c(NCc3c(F)ccc(F)c3OC)ncc(-c3ccccc3)c12 [compound 138, 5-((3,6-difluoro-2-methoxybenzyl)amino)-N-methyl-8-phenylimidazo[1,5-c]pyrimidine-1-carboxamide] | > 100 | – |
| CNC(=O)c1ncn2c(NCc3cc(OC)ccc3F)ncc(-c3ccccc3)c12 [compound 139, 5-((2-fluoro-5-methoxybenzyl)amino)-N-methyl-8-phenylimidazo[1,5-c]pyrimidine-1-carboxamide] | > 100 | – |

Second part, the compound after the results:

| IC50 [1] [nM] | IC50 [2] [nM] | Structure (SMILES) |
| --- | --- | --- |
| 7.78 | – | O=C1c2ncn3c(NCc4c(F)ccc5c4CCO5)ncc(c23)-c2ccc(C(F)(F)F)cc2CN1C1CC1 [compound 67, 4-cyclopropyl-12-(((5-fluoro-2,3-dihydrobenzofuran-4-yl)methyl)amino)-7-(trifluoromethyl)-4,5-dihydro-3H-2,4,11,12a-tetraazabenzo[4,5]cycloocta[1,2,3-cd]inden-3-one] |
| 1.35 | – | O=C1c2ncn3c(NCc4c(F)ccc5c4CCO5)ncc(c23)-c2ccc(C(F)(F)F)cc2CN1CC1COCCO1 (stereo not shown) [compound 68, 4-((1,4-dioxan-2-yl)methyl)-12-(((5-fluoro-2,3-dihydrobenzofuran-4-yl)methyl)amino)-7-(trifluoromethyl)-4,5-dihydro-3H-2,4,11,12a-tetraazabenzo[4,5]cycloocta[1,2,3-cd]inden-3-one] |
| > 100 | – | COc1cccc(F)c1CNc1ncc2c3c(ncn13)C(=O)N(C1CC1)Cc1nc(C(F)(F)F)ccc1-2 [compound 69, 4-cyclopropyl-12-((2-fluoro-6-methoxybenzyl)amino)-7-(trifluoromethyl)-4,5-dihydro-3H-2,4,6,11,12a-pentaazabenzo[4,5]cycloocta[1,2,3-cd]inden-3-one] |
| > 100 | – | COc1cccc(F)c1CNc1ncc2c3c(ncn13)C(=O)N(C1CC1)Cc1cc(C(F)(F)F)ncc1-2 [compound 70, 4-cyclopropyl-12-((2-fluoro-6-methoxybenzyl)amino)-7-(trifluoromethyl)-4,5-dihydro-3H-2,4,8,11,12a-pentaazabenzo[4,5]cycloocta[1,2,3-cd]inden-3-one] |
| 3.86 | – | O=C1c2ncn3c(NCc4c(F)ccc5c4CCO5)ncc(c23)-c2cnc(C(F)(F)F)cc2CN1CCF [compound 72, 12-(((5-fluoro-2,3-dihydrobenzofuran-4-yl)methyl)amino)-4-(2-fluoroethyl)-7-(trifluoromethyl)-4,5-dihydro-3H-2,4,8,11,12a-pentaazabenzo[4,5]cycloocta[1,2,3-cd]inden-3-one] |
| 11.3 | – | CC(C)N1Cc2cc(C(F)(F)F)ncc2-c2cnc(NCc3c(F)ccc4c3CCO4)n3cnc(c23)C1=O [compound 73, 12-(((5-fluoro-2,3-dihydrobenzofuran-4-yl)methyl)amino)-4-isopropyl-7-(trifluoromethyl)-4,5-dihydro-3H-2,4,8,11,12a-pentaazabenzo[4,5]cycloocta[1,2,3-cd]inden-3-one] |
| 47 | – | CN1CCC(N2Cc3cc(C(F)(F)F)ccc3-c3cnc(NCc4c(F)ccc5c4CCO5)n4cnc(c34)C2=O)CC1 [compound 74, 12-(((5-fluoro-2,3-dihydrobenzofuran-4-yl)methyl)amino)-4-(1-methylpiperidin-4-yl)-7-(trifluoromethyl)-4,5-dihydro-3H-2,4,11,12a-tetraazabenzo[4,5]cycloocta[1,2,3-cd]inden-3-one] |
| 22.5 | – | CC(F)(F)CN1Cc2nc(C(F)(F)F)ccc2-c2cnc(NCc3c(F)ccc4c3CCO4)n3cnc(c23)C1=O [compound 77, 4-(2,2-difluoropropyl)-12-(((5-fluoro-2,3-dihydrobenzofuran-4-yl)methyl)amino)-7-(trifluoromethyl)-4,5-dihydro-3H-2,4,6,11,12a-pentaazabenzo[4,5]cycloocta[1,2,3-cd]inden-3-one] |
| 1.43 | – | O=C1c2ncn3c(NCc4c(F)ccc5c4CCO5)ncc(c23)-c2ccc(C(F)(F)F)cc2CN1CC(F)F [compound 81, 4-(2,2-difluoroethyl)-12-(((5-fluoro-2,3-dihydrobenzofuran-4-yl)methyl)amino)-7-(trifluoromethyl)-4,5-dihydro-3H-2,4,11,12a-tetraazabenzo[4,5]cycloocta[1,2,3-cd]inden-3-one] |

— patent publication US12145944B2, “Imidazopyrimidines as EED inhibitors and the use thereof” (THE REGENTS OF THE UNIVERSITY OF MICHIGAN, priority 2019, dated 2024)
